Test results reported in the NIST ThermoML archive (doi:10.1021/je050031f).

Key:
[1] = xn = mol fraction of the nth substance listed; conditions: 100.8 kPa, Liquid; for viscosity: Capillary tube (Ostwald / Ubbelohde) method
[2] = refractive index (Na D-line) (dimensionless); xn = mol fraction of the nth substance listed; conditions: 100.8 kPa, Liquid, Standard Abbe refractometry

CC1CCCCC1 [methylcyclohexane] + CC(C)OC(C)C
Conditions	mass density, 288.15 K [kg/m3]	mass density, 298.15 K [kg/m3]	mass density, 308.15 K [kg/m3]	refractive index, 288.15 K	refractive index, 298.15 K	refractive index, 308.15 K	viscosity, 288.15 K [mPa·s]	viscosity, 298.15 K [mPa·s]	viscosity, 308.15 K [mPa·s]
[1], x2 = 0	773.4	765	756.3	–	–	–	0.784	0.685	0.6
[1], x2 = 0.0502	771.3	762.5	753.8	–	–	–	0.744	0.653	0.575
[1], x2 = 0.1	768.9	760.1	751.3	–	–	–	0.697	0.612	0.542
[1], x2 = 0.15	766.6	757.7	748.8	–	–	–	0.66	0.579	0.514
[1], x2 = 0.2	764.3	755.3	746.3	–	–	–	0.627	0.551	0.489
[1], x2 = 0.25	761.9	752.9	743.8	–	–	–	0.595	0.524	0.467
[1], x2 = 0.3	759.6	750.5	741.3	–	–	–	0.568	0.502	0.448
[1], x2 = 0.35	757.4	748.1	738.9	–	–	–	0.543	0.481	0.43
[1], x2 = 0.4	755.1	745.8	736.4	–	–	–	0.522	0.464	0.415
[1], x2 = 0.45	752.8	743.4	734	–	–	–	0.503	0.447	0.401
[1], x2 = 0.5	750.6	741.1	731.6	–	–	–	0.484	0.431	0.387
[1], x2 = 0.55	748.4	738.8	729.2	–	–	–	0.466	0.415	0.373
[1], x2 = 0.6	746.2	736.5	726.8	–	–	–	0.447	0.399	0.36
[1], x2 = 0.65	743.9	734.2	724.4	–	–	–	0.431	0.385	0.347
[1], x2 = 0.7	741.7	731.9	722	–	–	–	0.415	0.372	0.335
[1], x2 = 0.75	739.6	729.6	719.6	–	–	–	0.403	0.361	0.325
[1], x2 = 0.8	737.4	727.3	717.3	–	–	–	0.389	0.349	0.316
[1], x2 = 0.85	735.3	725.1	714.9	–	–	–	0.379	0.341	0.308
[1], x2 = 0.9	733.1	722.9	712.6	–	–	–	0.368	0.331	0.299
[1], x2 = 0.95	731	720.6	710.3	–	–	–	0.358	0.321	0.291
[2], x2 = 0	–	–	–	1.42578	1.42053	1.41537	–	–	–
[2], x2 = 0.0502	–	–	–	1.42321	1.41757	1.4125	–	–	–
[2], x2 = 0.1	–	–	–	1.42014	1.4146	1.40957	–	–	–
[2], x2 = 0.15	–	–	–	1.41715	1.41158	1.40663	–	–	–
[2], x2 = 0.2	–	–	–	1.41419	1.40859	1.40365	–	–	–
[2], x2 = 0.25	–	–	–	1.41129	1.40565	1.40068	–	–	–
[2], x2 = 0.3	–	–	–	1.40842	1.40277	1.39775	–	–	–
[2], x2 = 0.35	–	–	–	1.40558	1.3999	1.39484	–	–	–
[2], x2 = 0.4	–	–	–	1.40277	1.39707	1.39197	–	–	–
[2], x2 = 0.45	–	–	–	1.39999	1.39428	1.38912	–	–	–
[2], x2 = 0.5	–	–	–	1.39721	1.3915	1.38631	–	–	–
[2], x2 = 0.55	–	–	–	1.3945	1.38878	1.38356	–	–	–
[2], x2 = 0.6	–	–	–	1.3918	1.3861	1.38083	–	–	–
[2], x2 = 0.65	–	–	–	1.38914	1.38347	1.37818	–	–	–
[2], x2 = 0.7	–	–	–	1.38652	1.38082	1.37552	–	–	–
[2], x2 = 0.75	–	–	–	1.38392	1.37823	1.37286	–	–	–
[2], x2 = 0.8	–	–	–	1.38136	1.37565	1.37025	–	–	–
[2], x2 = 0.85	–	–	–	1.37883	1.37309	1.36765	–	–	–
[2], x2 = 0.9	–	–	–	1.37629	1.37053	1.36503	–	–	–
[2], x2 = 0.95	–	–	–	1.37377	1.36799	1.36243	–	–	–
